In patent US20250302965A1, “Preparations of Basic pH Hydrotropes & Methods for Making Same” (Aurora Pharmaceutical, Inc., priority 2023, published 2025):

Test: not given
Conditions: cited from earlier work

| SMILES | acidity (pKa) |
| --- | --- |
| CNC[C@H](O)[C@@H](O)[C@H](O)[C@H](O)CO [Meglumine] | 8.01 |

Test: Solubilization by meglumine chelate system (hydrotrope) at basic pH
Conditions: basic pH with meglumine

| SMILES | Dissolution after treatment to create a chelate system |
| --- | --- |
| O=C(CNC(=O)c1ccc(C2=NOC(c3cc(Cl)cc(C(F)(F)F)c3)(C(F)(F)F)C2)c2ccccc12)NCC(F)(F)F (stereo not drawn) [Afoxolaner] | Contains two amides and two aromatic groups, but the amides are not on a chain between the two aromatic groups. The one nitrogen atom that is between the two aromatic groups is not a secondary amine, amide or amino sulfone and did not dissolve when tested. |
| COc1ccc(-c2cc(C(F)F)nn2-c2ccc(S(N)(=O)=O)cc2)cc1F [Deracoxib] | Contains two aromatic groups and an aryl amino sulfone but the two nitrogen atoms between the aromatic groups are not secondary amines, amides or amino sulfones and did not dissolve when tested. |
| CCN1CCN(c2cc3c(cc2F)c(=O)c(C(=O)O)cn3C2CC2)CC1 [Enrofloxacin] | Contains only tertiary amines and only one aromatic group and did not dissolve when tested. |
| CC[C@H](C)[C@H]1O[C@]2(C=C[C@@H]1C)C[C@@H]1C[C@@H](C/C=C(\C)[C@@H](O[C@H]3C[C@H](OC)[C@@H](O[C@H]4C[C@H](OC)[C@H](NC(C)=O)[C@H](C)O4)C(C)O3)[C@@H](C)/C=C/C=C3\CO[C@@H]4[C@H](O)C(C)=C[C@@H](C(=O)O1)[C@]34O)O2 (stereo partly drawn) [Eprinomectin] | Contains an amide, but no amines, amino sulfones or aromatic groups and did not dissolve when tested. |
| COC(=O)Nc1nc2ccc(Sc3ccccc3)cc2[nH]1 [Fenbendazole] | Contains two aromatic groups and an amide, but the amide is not on the chain between the two aromatic groups and did not dissolve when tested. |
| CC1(C)OC(=O)C(OCC2CC2)=C1c1ccc(S(C)(=O)=O)cc1 [Firocoxib] | Does not contain any nitrogen and only one aromatic group with an aryl sulfone and did not dissolve when tested. |
| CS(=O)(=O)c1ccc([C@@H](O)[C@@H](CF)NC(=O)C(Cl)Cl)cc1 [Florfenicol] | Contains an amide and an aryl sulfone, but only one aromatic group and did not dissolve when tested. |
| O=[N+]([O-])/N=C1\NCCN1Cc1ccc(Cl)nc1 [Imidacloprid] | Contains a secondary amine and other nitrogen containing groups but only one aromatic group and did not dissolve when tested. |
| O=C(NC(=O)c1c(F)cccc1F)Nc1cc(Cl)c(OC(F)(F)C(F)C(F)(F)F)cc1Cl (stereo not drawn) [Lufenuron] | Contains two aromatic groups separated by two amide groups between the two aromatic groups and did not dissolve when tested. |
| CO/N=C1\C[C@]2(C[C@@H]3C[C@@H](C/C=C(\C)C[C@@H](C)/C=C/C=C4\CO[C@@H]5[C@H](O)C(C)=C[C@@H](C(=O)O3)[C@]45O)O2)O[C@H](/C(C)=C/C(C)C)[C@H]1C [Moxidectin] | No amines, amides, amino sulfones, or aromatic groups and did not dissolve when tested. |
| COc1ccc2[nH]c([S+]([O-])Cc3ncc(C)c(OC)c3C)nc2c1 (stereo not drawn) [Omeprazole] | Contains an aromatic benzene ring, a sulfoxide and an aromatic benzimidazole group, but it does not contain a secondary amine, amide or amino sulfone group and did not dissolve when tested. |
| Cc1cc(-n2c(=O)[nH]c(=O)n(C)c2=O)ccc1Oc1ccc(S(=O)(=O)C(F)(F)F)cc1 [Ponazuril] | Contains two aromatic groups and a sulfoxide and an amide, but the amide is not on the chain between the two aromatic rings and did not dissolve when tested. |

Same assay, conditions: basic pH, meglumine at least 2:1 molar ratio (meglumine to molecule)

| Examples of Solubilities Demonstrated in Experiments (in w/v) | SMILES |
| --- | --- |
| At least 1.5% w/v | CCc1nc2c(C)nc(C)cc2n1-c1ccc(CCNC(=O)NS(=O)(=O)c2ccc(C)cc2)cc1 [Grapiprant] |

Test: not given
Conditions: source named in cell (Merck Index, Pubchem, published literature); cited from earlier work

| SMILES | Reported Solubility in Water (in w/v) |
| --- | --- |
| CC(C(=O)O)c1ccc2c(c1)[nH]c1ccc(Cl)cc12 (stereo not drawn) [Carprofen] | 0.00411% (Pubchem) % w/v |
| CCc1nc2c(C)nc(C)cc2n1-c1ccc(CCNC(=O)NS(=O)(=O)c2ccc(C)cc2)cc1 [Grapiprant] | Insoluble (Pubchem) |
| CN1C(C(=O)Nc2ccccn2)=C(O)c2ccccc2S1(=O)=O [Piroxicam] | 0.00497% (Pubchem) % w/v |
| CCc1ccc(Nc2c(F)c(F)cc(F)c2F)c(CC(=O)O)c1 [Robenacoxib] | 0.017% (published literature) % w/v |
| Nc1ccc(S(=O)(=O)Nc2ncccn2)cc1 [Sulfadiazine] | 0.0077% (Pubchem) % w/v |
| COc1cc(NS(=O)(=O)c2ccc(N)cc2)nc(OC)n1 [Sulfadimethoxine] | 0.0343% (Pubchem) % w/v |

Test: Meloxicam formulations at different meglumine-to-meloxicam molar ratios; neutralization
Format: physicochemical
Conditions: […] w/v meloxicam formula, 2:1 meglumine-to-meloxicam, neutralized; pH crossed neutral

| Behaviour on neutralization | SMILES |
| --- | --- |
| fell out of solution | Cc1cnc(NC(=O)C2=C(O)c3ccccc3S(=O)(=O)N2C)s1 [Meloxicam] |
